In patent US8765684B2, “Solid materials of {[(2S,5R,8S,11S)-5-benzyl-11-(3-guanidino-propyl)-8-isopropyl-7-methyl-3,6,9,12,15-pentaoxo-1,4,7,10,13-pentaaza-cyclopentadec-2-yl]-acetic acid} and methods for obtaining them” (Merck Patent GmbH, priority 2009, dated 2014):
≈ marks a conversion by molar mass, not a printed value.

Assays:
[1] = Solid-state properties (hygroscopicity, stability, dissolution) stated in comparison with amorphous material and salts; assay type: physicochemical; conditions: solid material; for Hygroscopicity: comparison crystalline forms vs amorphous material
[2] = Solubility of tetrahydrate Form S3 in different solvents; assay type: physicochemical
[3] = assay type: physicochemical
Excerpt: Preferably, the anhydrates or ansolvates according to the invention and especially the crystalline form A1 can be characterised, alternatively or additionally, by dynamic vapour sorption experiments. The results can be obtained by standard techniques as described in Rolf Hilfiker, ‘Polymorphism in the Pharmaceutical Industry’, Wiley-VCH. Weinheim 2006 (Chapter 9: Water Vapour Sorption, and references therein). […] Eur. criteria.
Preferably, the tetrasolvates according to the invention, more preferably the tetrahydrates according to the invention and especially the crystalline form S3 can be characterised, alternatively or additionally, by dynamic vapour sorption experiments. The results can be obtained by standard techniques as described in Rolf Hilfiker, ‘Polymorphism in the Pharmaceutical Industry’, Wiley-VCH. Weinheim 2006 (Chapter 9: Water Vapour Sorption, and references therein).
Dynamic Vapor Sorption measurements are preferably obtained on a SMS DVS Intrinsic system. The results are preferably obtained by standard techniques as described by Rolf Hilfiker “Polymorphism in the Pharmaceutical Industry” Wiley-VCH Weinheim 2006 (Chapter 9: Water Vapour Sorption, and references therein.) Approx. 2-10 mg of samples are preferably weighed into an Aluminium 100 μL pan and placed in the sample incubator of the DVS instrument with microbalance. A nitrogen overall flow rate of 200 mL/min (combined dry and humid stream) is preferably used for humidification. Water vapor sorption isotherms are preferably acquired at 25° C. in the range 0% relative humidity to 98% relative humidity mostly with 10% relative humidity steps. For all relative humidity steps, an equilibrium condition of dm/dt≦0.0005 wt %/min are preferably used, with a minimum relative humidity step time of 10 minutes and a maximum relative humidity step time of 360 minutes which is preferably used as a timeout if the dm/dt criterai mentioned above is not been reached.
A SMS DVS I system is used for the dynamic vapour experiments regarding crystalline form S3. The results have been obtained by standard techniques as described in Rolf Hilfiker, ‘Polymorphism in the Pharmaceutical Industry’, Wiley-VCH. Weinheim 2006 (Chapter 9: Water Vapour Sorption, and references therein). […] During the water adsorption cycle there is shown an assembly of water molecules (ca. 10 wt%) in the lattice at elevated rh. In the second desorption cycle there is a loss of this amount of water.
(§1) A SMS DVS Intrinsic is used for the dynamic vapour experiments. The results are obtained by standard techniques as described in Rolf Hilfiker, ‘Polymorphism in the Pharmaceutical Industry’, Wiley-VCH. Weinheim 2006 (Chapter 9: Water Vapour Sorption, and references therein). […] Upon water vapour adsorption, an assembly of water molecules in the lattice is observed, with a maximum weight gain of approx. 8 wt % at elevated rh. In the second desorption cycle a total mass loss of approx. 9.9 wt % is observed. For a Cilengitide Dihydrate Di-Methanolate, the calculated Methanol content equals 9.3 wt %.
as §1, with “6.4” for “8”, “9.2” for “9.9”, “Di-Ethanolate,” for “Di-Methanolate,”, “Ethanol” for “Methanol”, “12.5” for “9.3”

[4] = Slurry conversion and competitive slurry conversion in water, saline, buffer and other solvents; assay type: physicochemical; conditions: in the presence of aqueous based solvents (suspensions, wetted material), absence of methanol and/or ethanol
Method: a) Crystalline tetrasolvates according to the invention and especially crystalline forms S1 and S2, can be obtained by slurry conversion from form A1 in a Methanol/Water mixture (70 v %:30 v %) at 25° C. for 2 days stirring time and Ethanol/Water mixture (60 v %:40 v %) at 25° C. for 18 days stirring time, respectively. General procedure:
Approx. 500 mg of form A1 of Cilengitide are dispersed in 5 ml solvent at room temperature. The dispersion is stirred for the mentioned time by a magnetic stirrer and finally filtered.
Form A1 of Cilengitide can be obtained by slurry conversion from pseudopolymorphic forms (for example S1, S2, S3 or mixtures of these) in Water at 25° C. An increased temperature (50° C.) accelerates the conversion to form A1.
Approx. 10 g of a pseudopolymorphic form (for example S1, S2, S3 or mixtures of these) of Cilengitide are dispersed in 50 ml deionised water at room temperature. The dispersion is stirred for 24 h by a magnetic stirrer and finally filtered.
Also the pure form form A1 can be manufactured by competitive slurry conversion experiments with a mixture of a pseudopolymorphic form (for example S1, S2, S3 or mixtures of these) and A1 (1:1) in Acetone, Acetonitrile, Isopropanol, physiological NaCl solution, Phosphate buffer (pH 7.4) and 1:1 (v:v) mixtures of Acetone, Acetonitrile, Isopropanol with Water at RT (25° C.).
Approx. […]

[5] = Competitive slurry conversion of pseudopolymorphic form and form A1 (1:1) in Water/Methanol and Water/Ethanol mixtures; assay type: physicochemical; conditions: for Methanol in the mixture with Water leading to form S1: 1:1 pseudopolymorphic form + A1
Method: b) Additionally, crystalline tetrasolvates according invention and especially crystalline forms S1 and S2 can be manufactured by competitive slurry conversion experiments with a mixture of a pseudopolymorphic form (for example S1, S2, S3 or mixtures of these) with form A1 (1:1) in Water/Methanol and Water/Ethanol mixtures with different alcohol contents at different temperatures, respectively.
(§2) Approx. 20 mg of a pseudopolymorphic form (for example S1, S2, S3 or mixtures of these) and 20 mg of form A1 of Cilengitide are dispersed in 300 μl Water/alcohol mixture at 0° C. or room temperature (25° C.). The dispersion is stirred for 24 h and additionally for 3 weeks at RT (25° C.) (long-term experiment) by a magnetic stirrer and finally filtered
Approx. 20 mg of a pseudopolymorphic form (for example S1, S2, S3 or mixtures of these) and 20 mg of form A1 of Cilengitide are dispersed in 300 μl Water/alcohol mixture at 50° C. The dispersion is stirred for 24 h by a magnetic stirrer and finally filtered.
Additionally form A1 can be manufactured by competitive slurry conversion experiments with a mixture of a pseudopolymorphic form (for example S1, S2, S3 or mixtures of these) and form A1 (1:1) in Water/Methanol and Water/Ethanol mixtures with different alcohol contents at different temperatures. In the following table the conditions for the experiments leading to the pure form A1 are listed.
as §2, with “C.,” for “C. or”, “and 50° C.” for “(25° C.).”, “filtered.” for “filtered”

[6] = Methanol vapour sorption (DVS, hydrate form to form S1); assay type: physicochemical
Method: In the respective dynamic vapor sorption experiments discussed in more detail herein using methanol vapor at 98% relative saturation for the Dihydrate-dimethanolate/crystalline form S1 at 25° C. starting with the tetrahydrate a mass gain of 9% has been obtained. This is in good agreement with the above shown results for the tetramethanolate (calculated 108.5%, i.e. 8.5% of mass gain).
Preferably, the tetrasolvates according to the invention, more preferably the Dihydrate-dimethanolate, the Dihydrate-methanolate, the Dihydrate-monoethanolate, the Dimethanolate and/or the desolvates thereof, and especially the crystalline form S1 can be characterised, alternatively or additionally, by dynamic vapour experiments using water vapour and/or methanol vapour. The results can be obtained by standard techniques as described in Rolf Hilfiker, ‘Polymorphism in the Pharmaceutical Industry’, Wiley-VCH. Weinheim 2006 (Chapter 9: Water Vapour Sorption, and references therein).
Upon water vapour adsorption, an assembly of water molecules in the lattice is observed, with a maximum weight gain of approx. 8 wt % at elevated rh. In the second desorption cycle a total mass loss of approx. 9.9 wt % is observed. For a Dihydrate Di-Methanolate of the compound of formula I, the calculated Methanol content equals 9.3 wt %. […] Methanol Vapour Sorption Isotherm (25° C.) of a hydrate form to form S1 (SMS DVS Advantage) FIG. 14.
Thus, crystalline form S1 is a crystalline Methanol solvate form or a mixed water/methanol solvate form, preferably selected from the Dihydrate-methanolate, the Dihydrate-monoethanolate, the Dimethanolate and/or the desolvates thereof, which can be obtained e.g. via Methanol Vapour Sorption, preferably via Methanol Vapour Sorption starting with a hydrate structure, such as the hydrates according to the invention and especially the tetrahydrate according to the invention, i.e crystalline form S3. […]

[7] = Conditioning of amorphous Cilengitide under methanol atmosphere; assay type: physicochemical; conditions: MeOH liquid phase 100 v %
Excerpt: As still another example, conditioning of amorphous material of the compound according to formula I or hydrate forms under methanol atmosphere yielded crystalline solvates with 2 molecules methanol per molecule of the compound according to formula I.
Conditioning of amorphous Cilengitide (abbreviated: Cil; Cilengitide=Cyclo-(Arg-Gly-Asp-DPhe-NMeVal) under methanol atmosphere yielded a solvate with 2 molecules methanol per molecule Cilengitide.

[8] = 50° C. for 1 day, table of b579
[9] = 50° C. for 1 day, table of b595
[10] = water vapour sorption, 25° C., listed as S1

CC(C)[C@H]1C(=O)N[C@@H](CCCNC(=N)N)C(=O)NCC(=O)N[C@@H](CC(=O)O)C(=O)N[C@H](Cc2ccccc2)C(=O)N1C [amorphous material, cyclo-(Arg-Gly-Asp-DPhe-NMe-Val)]
Hygroscopicity ([1]; listed as amorphous forms): unfavourably hygroscopic
Hygroscopicity ([1]; listed as amorphous solid material): very high hygroscopicity
Physical and/or chemical (solid state) stability ([1]; comparison crystalline forms vs amorphous phase): low stability

CC(C)[C@H]1C(=O)N[C@@H](CCCN=C(N)N)C(=O)NCC(=O)N[C@@H](CC(=O)O)C(=O)N[C@H](Cc2ccccc2)C(=O)N1C [crystalline form S3, cyclo-(Arg-Gly-Asp-DPhe-NMe-Val)]
solubility ([2]; solvent H2O): 21.6 mg/mL (≈ 36.7 mM)
solubility ([2]; solvent H2O/Acetone (1:1)): 22.7 mg/mL (≈ 38.6 mM)
solubility ([2]; solvent H2O/Acetonitrile (1:1)): 24.3 mg/mL (≈ 41.3 mM)
solubility ([2]; solvent H2O/EtOH (1:1)): 13 mg/mL (≈ 22.1 mM)
solubility ([2]; solvent H2O/MeOH (1:1)): 12.8 mg/mL (≈ 21.7 mM)
solubility ([2]; solvent H2O/iPrOH (1:1)): 22.9 mg/mL (≈ 38.9 mM)
solubility ([2]; solvent buffer pH 7.4): 24.4 mg/mL (≈ 41.4 mM)
solubility ([2]; solvent physiological NaCl solution): 21.1 mg/mL (≈ 35.8 mM)

cyclo-(Arg-Gly-Asp-DPhe-NMe-Val) [crystalline form A1]
Physical stability of the crystal form versus relative humidity [3]: physical stability of the crystal form throughout the entire relative humidity range (0-98%)
Hygroscopicity classification ([3]; acc. to Ph. Eur. criteria, water vapour sorption 25° C.): non-hygroscopic
Water uptake levels ([3]; up to 98% relative humidity, 25° C.): small
Formation or conversion to a hydrate ([3]; water vapour sorption up to 98% relative humidity): No formation or conversion to a hydrate is observed
Thermodynamic stability of the form [4]: thermodynamically stable form
Ethanol in the mixture with Water leading to pure form A1 ([5]; 0° C. for 1 day): 0-10 v %
Methanol in the mixture with Water leading to pure form A1 ([5]; 0° C. for 1 day): 0 v %
Ethanol in the mixture with Water leading to form A1 (no pseudopolymorphic form obtained) [5, 8]: 90-100 v %
Methanol in the mixture with Water leading to form A1 (no pseudopolymorphic form obtained) [5, 8]: 90-100 v %
Ethanol in the mixture with Water leading to pure form A1 [5, 9]: 0-80 v %
Methanol in the mixture with Water leading to pure form A1 [5, 9]: 0-70 v %
Ethanol in the mixture with Water leading to pure form A1 ([5]; RT for 3 weeks): 0-20 v %
Methanol in the mixture with Water leading to pure form A1 ([5]; RT for 3 weeks): 0-40 v %
Ethanol in the mixture with Water leading to pure form A1 ([5]; RT for 1 day): 0-30 v %
Methanol in the mixture with Water leading to pure form A1 ([5]; RT for 1 day): 0-50 v %

cyclo-(Arg-Gly-Asp-DPhe-NMe-Val) [crystalline form S1]
Maximum weight gain upon water vapour adsorption ([3]; elevated rh, 25° C., listed as S1): approx. 8 wt %
Mass loss in the first desorption cycle [3, 10]: approx. 8 wt %
Total mass loss in the second desorption cycle [3, 10]: approx. 9.9 wt %
Thermodynamic stability of the form ([6]; atmosphere of 100% Methanol vapour): thermodynamically stable form
Methanol taken up by the sample ([6]; elevated Methanol partial pressure, starting with a hydrate structure): approx. 9 wt %
Mass gain ([6]; methanol vapor at 98% relative saturation, 25° C., starting with the tetrahydrate): 9%
H2O KF [7]: 0.3 wt %
MeOH HS-GC [7]: 10.0 wt %
Σ TG [7]: 10.4 wt %
H2O KF ([7]; per 1 mol Cil): 0.1 mol
MeOH HS-GC ([7]; per 1 mol Cil): 2.1 mol
Methanol in the mixture with Water leading to form S1 ([5]; 0° C. for 1 day): 40-100 v %
Methanol in the mixture with Water leading to form S1 ([5]; RT for 3 weeks): 60-100 v %
Methanol in the mixture with Water leading to form S1 ([5]; RT for 1 day): 60-100 v %
